Results from patent US12077503B2, “Substituted cyclic amides and their use as herbicides” (FMC CORPORATION, priority 2015, dated 2024).

Assays:
Format in all cases: in vivo
[1] = test system: barnyardgrass (Echinochloa crus-galli); assay: Test G Pre-Emergence Protocol; settings: Echinochloa crus-galli, pre-emergence, 312 h, evaluated after 13 days; for pest or weed control at 15.625 g/ha: 15.625 g ai/ha; for pest or weed control at 15.625 g/ha / pest or weed control at 250 g/ha: read-out: Barnyardgrass damage rating (100=total damage to plant; 0=no damage to plant); for pest or weed control at 62.5 g/ha: 62.5 g ai/ha, 100=total damage to plant, 0=no damage to plant, read-out: Barnyardgrass damage rating; for pest or weed control at 250 g/ha: 250 g ai/ha
Summary of the method: (§1)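 Pre-emergence spray, 15.625/62.5/250 g/ha, vehicle acetone:water 50:50 + 0.5% Tween 20, applied 1 d after sowing. Glasshouse 24/16° C, 14 h light, 65% RH, watered twice daily. Visual damage rating at 13 d, 0–100 scale.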

[2] = test system: corn (Zea mays); assay: Test G Pre-Emergence Protocol; settings: Zea mays, pre-emergence, 312 h, evaluated after 13 days; for plant injury at 15.625 g/ha: 15.625 g ai/ha; for plant injury at 15.625 g/ha / plant injury at 250 g/ha: read-out: Corn damage rating (100=total damage to plant; 0=no damage to plant); for plant injury at 62.5 g/ha: 62.5 g ai/ha, 100=total damage to plant, 0=no damage to plant, read-out: Corn damage rating; for plant injury at 250 g/ha: 250 g ai/ha
Summary of the method: as §1

[3] = test system: giant foxtail (Setaria faberi); assay: Test G Pre-Emergence Protocol; settings: Setaria faberi, pre-emergence, 312 h, evaluated after 13 days; for pest or weed control at 15.625 g/ha: 15.625 g ai/ha; for pest or weed control at 15.625 g/ha / pest or weed control at 250 g/ha: read-out: Foxtail, Giant damage rating (100=total damage to plant; 0=no damage to plant); for pest or weed control at 62.5 g/ha: 62.5 g ai/ha, 100=total damage to plant, 0=no damage to plant, read-out: Foxtail, Giant damage rating; for pest or weed control at 250 g/ha: 250 g ai/ha
Summary of the method: as §1

[4] = test system: ivy-leaved morning glory (Ipomoea hederacea); assay: Test G Pre-Emergence Protocol; settings: Ipomoea, pre-emergence, 312 h, evaluated after 13 days; for pest or weed control at 15.625 g/ha: 15.625 g ai/ha; for pest or weed control at 15.625 g/ha / pest or weed control at 250 g/ha: read-out: Morningglory, Ivy-leaved damage rating (100=total damage to plant; 0=no damage to plant); for pest or weed control at 62.5 g/ha: 62.5 g ai/ha, 100=total damage to plant, 0=no damage to plant, read-out: Morningglory, Ivy-leaved damage rating; for pest or weed control at 250 g/ha: 250 g ai/ha
Summary of the method: as §1

[5] = test system: redroot pigweed (Amaranthus retroflexus); assay: Test G Pre-Emergence Protocol; settings: Amaranthus retroflexus, pre-emergence, 312 h, evaluated after 13 days; for pest or weed control at 15.625 g/ha: 15.625 g ai/ha; for pest or weed control at 15.625 g/ha / pest or weed control at 250 g/ha: read-out: Pigweed, Redroot damage rating (100=total damage to plant; 0=no damage to plant); for pest or weed control at 62.5 g/ha: 62.5 g ai/ha, 100=total damage to plant, 0=no damage to plant, read-out: Pigweed, Redroot damage rating; for pest or weed control at 250 g/ha: 250 g ai/ha
Summary of the method: as §1

[6] = test system: velvetleaf (Abutilon theophrasti); assay: Test G Pre-Emergence Protocol; settings: Abutilon theophrasti, pre-emergence, 312 h, evaluated after 13 days; for pest or weed control at 15.625 g/ha: 15.625 g ai/ha; for pest or weed control at 15.625 g/ha / pest or weed control at 250 g/ha: read-out: Velvetleaf damage rating (100=total damage to plant; 0=no damage to plant); for pest or weed control at 62.5 g/ha: 62.5 g ai/ha, 100=total damage to plant, 0=no damage to plant, read-out: Velvetleaf damage rating; for pest or weed control at 250 g/ha: 250 g ai/ha
Summary of the method: as §1

[7] = test system: barnyardgrass (Echinochloa crus-galli); assay: Test G Post-Emergence Protocol; settings: Echinochloa crus-galli, post-emergence, 312 h, read-out: Barnyardgrass damage rating; for pest or weed control at 15.625 g/ha: 15.625 g ai/ha, evaluated after 13 days (100=total damage to plant; 0=no damage to plant); for pest or weed control at 62.5 g/ha: 62.5 g ai/ha; for pest or weed control at 62.5 g/ha / pest or weed control at 250 g/ha: evaluated after 13 days, 100=total damage to plant, 0=no damage to plant; for pest or weed control at 250 g/ha: 250 g ai/ha
Summary of the method: (§2)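 A glasshouse post-emergence test: 8-day-old plants sprayed at 15.625, 62.5 or 250 g/ha, then grown at 24/16 °C day/night with 14 h light and 65% humidity. Damage rated 13 days later, 0–100.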

[8] = test system: corn (Zea mays); assay: Test G Post-Emergence Protocol; settings: Zea mays, post-emergence, 312 h, read-out: Corn damage rating; for plant injury at 15.625 g/ha: 15.625 g ai/ha, evaluated after 13 days (100=total damage to plant; 0=no damage to plant); for plant injury at 62.5 g/ha: 62.5 g ai/ha; for plant injury at 62.5 g/ha / plant injury at 250 g/ha: evaluated after 13 days, 100=total damage to plant, 0=no damage to plant; for plant injury at 250 g/ha: 250 g ai/ha
Summary of the method: as §2

[9] = test system: giant foxtail (Setaria faberi); assay: Test G Post-Emergence Protocol; settings: Setaria faberi, post-emergence, 312 h, read-out: Foxtail, Giant damage rating; for pest or weed control at 15.625 g/ha: 15.625 g ai/ha, evaluated after 13 days (100=total damage to plant; 0=no damage to plant); for pest or weed control at 62.5 g/ha: 62.5 g ai/ha; for pest or weed control at 62.5 g/ha / pest or weed control at 250 g/ha: evaluated after 13 days, 100=total damage to plant, 0=no damage to plant; for pest or weed control at 250 g/ha: 250 g ai/ha
Summary of the method: as §2

[10] = test system: ivy-leaved morning glory (Ipomoea hederacea); assay: Test G Post-Emergence Protocol; settings: Ipomoea, post-emergence, 312 h, read-out: Morningglory, Ivy-leaved damage rating; for pest or weed control at 15.625 g/ha: 15.625 g ai/ha, evaluated after 13 days (100=total damage to plant; 0=no damage to plant); for pest or weed control at 62.5 g/ha: 62.5 g ai/ha; for pest or weed control at 62.5 g/ha / pest or weed control at 250 g/ha: evaluated after 13 days, 100=total damage to plant, 0=no damage to plant; for pest or weed control at 250 g/ha: 250 g ai/ha
Summary of the method: as §2

[11] = test system: redroot pigweed (Amaranthus retroflexus); assay: Test G Post-Emergence Protocol; settings: Amaranthus retroflexus, post-emergence, 312 h, read-out: Pigweed, Redroot damage rating; for pest or weed control at 15.625 g/ha: 15.625 g ai/ha, evaluated after 13 days (100=total damage to plant; 0=no damage to plant); for pest or weed control at 62.5 g/ha: 62.5 g ai/ha; for pest or weed control at 62.5 g/ha / pest or weed control at 250 g/ha: evaluated after 13 days, 100=total damage to plant, 0=no damage to plant; for pest or weed control at 250 g/ha: 250 g ai/ha
Summary of the method: as §2

[12] = test system: velvetleaf (Abutilon theophrasti); assay: Test G Post-Emergence Protocol; settings: Abutilon theophrasti, post-emergence, 312 h, read-out: Velvetleaf damage rating; for pest or weed control at 15.625 g/ha: 15.625 g ai/ha, evaluated after 13 days (100=total damage to plant; 0=no damage to plant); for pest or weed control at 62.5 g/ha: 62.5 g ai/ha; for pest or weed control at 62.5 g/ha / pest or weed control at 250 g/ha: evaluated after 13 days, 100=total damage to plant, 0=no damage to plant; for pest or weed control at 250 g/ha: 250 g ai/ha
Summary of the method: as §2

Row | SMILES | pest or weed control at 15.625 g/ha [1] [%] | pest or weed control at 62.5 g/ha [1] [%] | pest or weed control at 250 g/ha [1] [%] | plant injury at 15.625 g/ha [2] [%] | plant injury at 62.5 g/ha [2] [%] | plant injury at 250 g/ha [2] [%] | pest or weed control at 15.625 g/ha [3] [%] | pest or weed control at 62.5 g/ha [3] [%] | pest or weed control at 250 g/ha [3] [%] | pest or weed control at 15.625 g/ha [4] [%] | pest or weed control at 62.5 g/ha [4] [%] | pest or weed control at 250 g/ha [4] [%] | pest or weed control at 15.625 g/ha [5] [%] | pest or weed control at 62.5 g/ha [5] [%] | pest or weed control at 250 g/ha [5] [%] | pest or weed control at 15.625 g/ha [6] [%] | pest or weed control at 62.5 g/ha [6] [%] | pest or weed control at 250 g/ha [6] [%] | pest or weed control at 15.625 g/ha [7] [%] | pest or weed control at 62.5 g/ha [7] [%] | also measured
1 | CN1C[C@@H](c2cccc(C(F)(F)F)c2)[C@H](C(=O)Nc2cccc(F)n2)C1=O [Compound 1817] | 0 | 0 | 0 | 0 | 0 | 0 | 0 | 0 | 10 | 0 | 0 | 0 | 0 | 0 | 0 | 0 | 0 | 0 | 0 | 0 | pest or weed control at 250 g/ha [7]: 0%; plant injury at 15.625 g/ha [8]: 0%; plant injury at 62.5 g/ha [8]: 0%; plant injury at 250 g/ha [8]: 0%; pest or weed control at 15.625 g/ha [9]: 0%; pest or weed control at 62.5 g/ha [9]: 0%; pest or weed control at 250 g/ha [9]: 0%; pest or weed control at 15.625 g/ha [10]: 0%; pest or weed control at 62.5 g/ha [10]: 0%; pest or weed control at 250 g/ha [10]: 0%; pest or weed control at 15.625 g/ha [11]: 0%; pest or weed control at 62.5 g/ha [11]: 0%; pest or weed control at 250 g/ha [11]: 0%; pest or weed control at 15.625 g/ha [12]: 0%; pest or weed control at 62.5 g/ha [12]: 0%; pest or weed control at 250 g/ha [12]: 0%
2 | COc1cc(C2CN(C)C(=O)C2C(=O)Nc2cccc(F)c2F)cc(C(F)(F)F)c1F (stereo not drawn) [Compound 1701] | 0 | 30 | 70 | 0 | 0 | 30 | 40 | 80 | 90 | 0 | 20 | 20 | 0 | 0 | 10 | 0 | 0 | 0 | 10 | 60 | pest or weed control at 250 g/ha [7]: 70%; plant injury at 15.625 g/ha [8]: 10%; plant injury at 62.5 g/ha [8]: 30%; plant injury at 250 g/ha [8]: 50%; pest or weed control at 15.625 g/ha [9]: 40%; pest or weed control at 62.5 g/ha [9]: 60%; pest or weed control at 250 g/ha [9]: 60%; pest or weed control at 15.625 g/ha [10]: 0%; pest or weed control at 62.5 g/ha [10]: 0%; pest or weed control at 250 g/ha [10]: 30%; pest or weed control at 15.625 g/ha [11]: 0%; pest or weed control at 62.5 g/ha [11]: 0%; pest or weed control at 250 g/ha [11]: 30%; pest or weed control at 15.625 g/ha [12]: 0%; pest or weed control at 62.5 g/ha [12]: 0%; pest or weed control at 250 g/ha [12]: 0%
3 | Cc1c(F)cccc1NC(=O)[C@@H]1C(=O)N(C)C[C@H]1c1ccnc(OCC(F)(F)F)c1 (racemic) [Compound 1802] | 10 | 70 | 90 | 0 | 0 | 70 | 70 | 90 | 90 | 0 | 0 | 40 | 0 | 10 | 30 | 0 | 20 | 70 | 0 | 60 | pest or weed control at 250 g/ha [7]: 70%; plant injury at 15.625 g/ha [8]: 0%; plant injury at 62.5 g/ha [8]: 0%; plant injury at 250 g/ha [8]: 60%; pest or weed control at 15.625 g/ha [9]: 40%; pest or weed control at 62.5 g/ha [9]: 70%; pest or weed control at 250 g/ha [9]: 80%; pest or weed control at 15.625 g/ha [10]: 0%; pest or weed control at 62.5 g/ha [10]: 0%; pest or weed control at 250 g/ha [10]: 0%; pest or weed control at 15.625 g/ha [11]: 0%; pest or weed control at 62.5 g/ha [11]: 0%; pest or weed control at 250 g/ha [11]: 40%; pest or weed control at 15.625 g/ha [12]: 0%; pest or weed control at 62.5 g/ha [12]: 40%; pest or weed control at 250 g/ha [12]: 70%
